{
  "source": "patent US12532889B2",
  "about": "“Herbicidal compositions comprising glufosinate” (BASF SE, priority 2023, dated 2026)",
  "assay_in_all_cases": "Post-emergence application in field trials (Example A)",
  "type_in_all_cases": "in vivo",
  "key": {"[1]": {"test_system": "SPCHI (Spermacoce hispida)", "conditions": "Table 1.2, SPCHI height 25 cm, 14 DAT, water volume 100 l/ha, 0.5% v/v MSO", "experimental": "(§1) In the examples below, using the method of S. R. Colby (1967) “Calculating synergistic and antagonistic responses of herbicide combinations”, Weeds 15, p. 22ff., the value E, which is expected if the activity of the individual active compounds is only additive, was calculated:\n(§2) [formula] • where • X=percent activity using active herbicide A at an application rate a; • Y=percent activity using active herbicide B (e.g. glufosinate) at an application rate b; • E=expected activity (in %) by A+B at application rates a+b.\n(§3) If the value found experimentally is higher than the value E calculated according to Colby, a synergistic effect is present.\n(§4) On field test sites, natural weed infestation or seeded weeds were treated post-emergence of the weeds.\n(§5) In the field trials, the weeds were treated as indicated below.\n(§6) In the following experiments, the herbicidal activity for the individual herbicidal compositions (solo and mixture applications) was assessed at the indicated days after treatment (DAT). The assessments for the damage on undesired weeds caused by the composition was carried out using a scale from 0 to 100%, compared to the untreated control plants. Here, 0 means no damage and 100 means complete destruction of the plants.\n(§7) Post-emergence application of Herbicide A-1 (A-1) and glufosinate ammonium (B-2) in Field Trials:\n(§8) Herbicide A-1 (50 g/l), glufosinate ammonium (200 g/l) and optional herbicide C were, together with addition of 0.5% v/v MSO (methylated seed oil) as adjuvant, formulated in water as distribution medium as indicated and sprayed with commercial flat fan nozzles."}, "[2]": {"test_system": "CYPDI (Cyperus difformis)", "conditions": "CYPDI height 25 cm", "experimental": "as §1, §2, §3, §4, §5, §6, §7, §8"}, "[3]": {"test_system": "DIGIN = TRCIN (Digitaria insularis)", "experimental": "as §1, §2, §3, §4, §5, §6, §7, §8"}, "EPHHI (Euphorbia hirta)": {"test_system": "EPHHI (Euphorbia hirta)", "conditions": "Table 1.2; EPHHI height 25 cm; A-1 solo 25 g ai/ha; 14 DAT; water volume 100 l/ha; 0.5% v/v MSO", "experimental": "as §1, §2, §3, §4, §5, §6, §7, §8"}, "ELEIN (Eleusine indica)": {"test_system": "ELEIN (Eleusine indica)", "experimental": "as §1, §2, §3, §4, §5, §6, §7, §8"}, "[4]": {"test_system": "ECHCG (Echinocloa crus-galli)", "conditions": "growth stage 23-30, height 15-20 cm", "outline": "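Post-emergence field spray, natural or sown weeds; solo and tank-mix treatments. Visual damage 0% (none) to 100% (complete kill) vs untreated control at indicated DAT. Colby E = expected additive effect; observed above E = synergy.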"}},
  "note": "Values joined by “and” are separate entries in the source; they are usually repeats but may differ in a detail not shown here. Identical values can stand only once.",
  "data": [
    {"smiles": "CCOC(=O)COc1ccccc1Oc1nc(-n2c(=O)cc(C(F)(F)F)n(C)c2=O)c(F)cc1Cl", "note": "[A-1, ethyl 2-[2-[[3-chloro-5-fluoro-6-[3-methyl-2,6-dioxo-4-(trifluoromethyl)pyrimidin-1-yl]-2-pyridyl]oxy]phenoxy]acetate]", "values": [
      {"measurement": "% herbicidal activity", "setting": "[1]; A-1 solo 25 g ai/ha", "result": 40, "unit": "%"},
      {"measurement": "% herbicidal activity", "setting": "[1]; A-1 solo 50 g ai/ha", "result": 50, "unit": "%"},
      {"measurement": "% herbicidal activity", "setting": "[2]; Table 1.15, A-1 25, B-2 400 g ai/ha, 21 DAT, water 100 l/ha", "result": 50, "unit": "%"},
      {"measurement": "% herbicidal activity", "setting": "[2]; Table 1.2, A-1 solo 25 g ai/ha, 14 DAT, water volume 100 l/ha, 0.5% v/v MSO", "result": 52, "unit": "%"},
      {"measurement": "% herbicidal activity", "setting": "[2]; Table 1.2, A-1 solo 50 g ai/ha, 14 DAT, water volume 100 l/ha, 0.5% v/v MSO", "result": 60, "unit": "%"},
      {"measurement": "% herbicidal activity", "setting": "[3]; Table 1.13, DIGIN height 20-30 cm, A-1 50, B-2 400 g ai/ha, 21 DAT, water 100 l/ha", "result": 30, "unit": "%"},
      {"measurement": "% herbicidal activity", "setting": "[3]; Table 1.17, DIGIN height 20-30 cm, A-1 50, B-2 400 g ai/ha, 21 DAT, water 200 l/ha", "result": 30, "unit": "%"},
      {"measurement": "% herbicidal activity", "setting": "[3]; Table 1.19, DIGIN height 20-30 cm, A-1 50, B-2 400 g ai/ha, 21 DAT, water 200 l/ha", "result": 30, "unit": "%"},
      {"measurement": "% herbicidal activity", "setting": "[3]; Table 1.20, DIGIN height 60-80 cm, A-1 50, B-2 400 g ai/ha, 21 DAT, water 200 l/ha", "result": 55, "unit": "%"},
      {"measurement": "% herbicidal activity", "setting": "[3]; Table 1.22, DIGIN in tillering stage, height 5-15 cm, A-1 50, B-2 400 g ai/ha, 21 DAT, water 200 l/ha", "result": 57, "unit": "%"},
      {"measurement": "% herbicidal activity", "setting": "[3]; Table 1.22, DIGIN in tillering stage, height 5-15 cm, A-1 50, B-2 600 g ai/ha, 21 DAT, water 200 l/ha", "result": 57, "unit": "%"},
      {"measurement": "% herbicidal activity", "setting": "[3]; Table 1.23, DIGIN growth stage 16-18, height 15-25 cm, A-1 50, B-2 400 g ai/ha, 21 DAT, water 200 l/ha", "result": 57, "unit": "%"},
      {"measurement": "% herbicidal activity", "setting": "[3]; Table 1.23, DIGIN growth stage 16-18, height 15-25 cm, A-1 50, B-2 600 g ai/ha, 21 DAT, water 200 l/ha", "result": 57, "unit": "%"},
      {"measurement": "% herbicidal activity", "setting": "[3]; Table 1.24, DIGIN growth stage 67, height 100 cm, A-1 50, B-2 400 g ai/ha, 21 DAT, water 200 l/ha", "result": 7, "unit": "%"},
      {"measurement": "% herbicidal activity", "setting": "[3]; Table 1.24, DIGIN growth stage 67, height 100 cm, A-1 50, B-2 600 g ai/ha, 21 DAT, water 200 l/ha", "result": 7, "unit": "%"},
      {"measurement": "% herbicidal activity", "setting": "[3]; Table 1.25, DIGIN in tillering stage, height 8-20 cm, A-1 50, B-2 400 g ai/ha, 21 DAT, water 200 l/ha", "result": 53, "unit": "%"},
      {"measurement": "% herbicidal activity", "setting": "[3]; Table 1.25, DIGIN in tillering stage, height 8-20 cm, A-1 50, B-2 600 g ai/ha, 21 DAT, water 200 l/ha", "result": 53, "unit": "%"},
      {"measurement": "% herbicidal activity", "setting": "[3]; Table 1.26, DIGIN in tillering stage, height 50-70 cm, A-1 50, B-2 400 g ai/ha, 21 DAT, water 200 l/ha", "result": 55, "unit": "%"},
      {"measurement": "% herbicidal activity", "setting": "[3]; Table 1.26, DIGIN in tillering stage, height 50-70 cm, A-1 50, B-2 600 g ai/ha, 21 DAT, water 200 l/ha", "result": 55, "unit": "%"},
      {"measurement": "% herbicidal activity", "setting": "[3]; Table 1.3, DIGIN height 60-80 cm, A-1 25, B-2 400 g ai/ha, 14 DAT, water 200 l/ha", "result": 37, "unit": "%"},
      {"measurement": "% herbicidal activity", "setting": "[3]; Table 1.3, DIGIN height 60-80 cm, A-1 50, B-2 400 g ai/ha, 14 DAT, water 200 l/ha", "result": 60, "unit": "%"},
      {"measurement": "% herbicidal activity", "setting": "[3]; Table 1.5, DIGIN growth stage 16-18, height 15-25 cm, A-1 50, B-2 400 g ai/ha, 14 DAT, water 200 l/ha", "result": 62, "unit": "%"},
      {"measurement": "% herbicidal activity", "setting": "[3]; Table 1.5, DIGIN growth stage 16-18, height 15-25 cm, A-1 50, B-2 600 g ai/ha, 14 DAT, water 200 l/ha", "result": 62, "unit": "%"},
      {"measurement": "% herbicidal activity", "setting": "[3]; Table 1.7, DIGIN height 50-70 cm, tillering stage, A-1 solo 50 g ai/ha, 14 DAT, water volume 200 l/ha, 0.5% v/v MSO", "result": 42, "unit": "%"},
      {"measurement": "% herbicidal activity", "setting": "EPHHI (Euphorbia hirta)", "result": 50, "unit": "%"},
      {"measurement": "% herbicidal activity", "setting": "ELEIN (Eleusine indica); Table 1.10, ELEIN growth stage 23-25, height 3-5 cm, A-1 25, B-2 400 g ai/ha, 20 DAT, water 200 l/ha", "result": 82, "unit": "%"},
      {"measurement": "% herbicidal activity", "setting": "ELEIN (Eleusine indica); Table 1.1, ELEIN growth stage 24, A-1 solo 25 g ai/ha, 14 DAT, water volume 100 l/ha, 0.5% v/v MSO", "result": 75, "unit": "%"},
      {"measurement": "% herbicidal activity", "setting": "ELEIN (Eleusine indica); Table 1.14, ELEIN growth stage 24, A-1 25, B-2 400 g ai/ha, 21 DAT, water 100 l/ha", "result": 58, "unit": "%"},
      {"measurement": "% herbicidal activity", "setting": "ELEIN (Eleusine indica); Table 1.15, ELEIN height 25 cm, A-1 25, B-2 400 g ai/ha, 21 DAT, water 100 l/ha", "result": 50, "unit": "%"},
      {"measurement": "% herbicidal activity", "setting": "ELEIN (Eleusine indica); Table 1.15, ELEIN height 25 cm, A-1 50, B-2 400 g ai/ha, 21 DAT, water 100 l/ha", "result": 60, "unit": "%"},
      {"measurement": "% herbicidal activity", "setting": "ELEIN (Eleusine indica); Table 1.18, ELEIN growth stage 24, A-1 25, B-2 400 g ai/ha, 21 DAT, water 200 l/ha", "result": 67, "unit": "%"},
      {"measurement": "% herbicidal activity", "setting": "ELEIN (Eleusine indica); Table 1.18, ELEIN growth stage 24, A-1 50, B-2 400 g ai/ha, 21 DAT, water 200 l/ha", "result": 82, "unit": "%"},
      {"measurement": "% herbicidal activity", "setting": "ELEIN (Eleusine indica); Table 1.21, ELEIN growth stage 24, A-1 25, B-2 400 g ai/ha, 21 DAT, water 200 l/ha", "result": 68, "unit": "%"},
      {"measurement": "% herbicidal activity", "setting": "ELEIN (Eleusine indica); Table 1.21, ELEIN growth stage 24, A-1 50, B-2 400 g ai/ha, 21 DAT, water 200 l/ha", "result": 73, "unit": "%"},
      {"measurement": "% herbicidal activity", "setting": "ELEIN (Eleusine indica); Table 1.4, ELEIN growth stage 24, A-1 50, B-2 400 g ai/ha, 14 DAT, water 200 l/ha", "result": 88, "unit": "%"},
      {"measurement": "% herbicidal activity", "setting": "ELEIN (Eleusine indica); Table 1.9, ELEIN growth stage 23-25, height 3-5 cm, A-1 25, B-2 400 g ai/ha, 20 DAT, water 100 l/ha", "result": 91, "unit": "%"},
      {"measurement": "% herbicidal activity", "setting": "[4]; 7 DAT, A-1 12.5 g ai/ha", "result": 20, "unit": "%"},
      {"measurement": "% herbicidal activity", "setting": "[4]; 7 DAT, A-1 18 g ai/ha", "result": 40, "unit": "%"},
      {"measurement": "% Herbicidal activity", "setting": "[4]; 21 DAT, A-1 12.5 g ai/ha", "result": "30% and 20%"},
      {"measurement": "% herbicidal activity", "setting": "[4]; 21 DAT, A-1 12.5 g ai/ha", "result": "20% and 30%"},
      {"measurement": "% Herbicidal activity", "setting": "[4]; 21 DAT, A-1 18 g ai/ha", "result": 30, "unit": "%"},
      {"measurement": "% herbicidal activity", "setting": "[4]; 21 DAT, A-1 18 g ai/ha", "result": "30% and 40%"},
      {"measurement": "% Herbicidal activity", "setting": "[4]; 28 DAT, A-1 12.5 g ai/ha", "result": 20, "unit": "%"}
    ]}
  ]
}
